Source: patent US20110126300A1, “High Through-Put Method of Screening Compounds for Pharmacological Activity” (priority 2005, published 2011)

Assays:
[1] = system: wild type zebrafish larvae; assay: PTZ-induced seizure assay in larvae; assay type: in vivo; conditions: PTZ 15 uM, 4 day post-fertilization wild type larvae
Description: To assay small molecule compounds with anti-seizure activity, 4 day post-fertilization wild type zebrafish were placed in 96-well plates (5 larvae per well) and incubated in the test compounds (20 uM) as above, for either 2 or 12 hrs. Subsequently, the larvae were administered pentylenetetrazole (PTZ; 15 uM) and observed for seizure activity (i.e., a change in phenotype). […] This activity persists for approximately 20 minutes and then culminates in a tonic convulsion that abolishes movement and normal posture. Prior to or after onset of the seizure activity, the small molecule test compound was administered to the larvae and the response of the fish assessed visually or by digital recording.
Scoring was based upon whether the test compound was able to inhibit or modify the seizure activity of the larvae.

[2] = system: meltdown (mlt) mutant larvae; assay: Rescue of the mlt mutant phenotype by compound exposure, read out with fluorescent lipid PED6 in the posterior intestine; assay type: in vivo, zebrafish (Danio rerio)
Description: For testing, the embryos were then cultured in the presence of the test compound(s) overnight or up to 96 hrs at 28.5° C., for example, in 96-well plates. Mutant larvae and mutants reared in the presence of small molecule compounds may be bathed in the fluorescent lipid PED6 or fluorescent microspheres, which outline the digestive tract lumen and can be seen by visual inspection or by a commercially-available fluorescent plate scanner, typically by 96-120 hours post fertilization (hpf). Although signals that regulate regional epithelial differentiation and renewal are poorly understood, in meltdown (mlt), the posterior gut is disorganized and bears an expanded mesenchyme (Briggs, Am. J. Physiol. Regulatory Integrative Comp. Physiol. 282: R3-9 (2002)). Neither fluorescent marker enters the posterior intestine of mlt mutants because the intestinal lumen is obstructed by the massive cysts that form in all mlt mutant larvae.
No effect: A test compound was considered to have no effect if none of the mlt mutant larvae show fluorescent lipid in the posterior intestine.
When no mutants were observed, one possibility was that the test compound produced a complete rescue of the mutant phenotype. The other possibility was that there were never any mutants present in the well. When embryos derived from matings of heterozygous mlt/+ fish are used for these assays, then with 8-10 embryos per test compound, the latter possibility may be calculated to occur with a frequency of 0.01%.
Partial rescue: Partial rescue was considered when mutants or the mutant phenotype was present, but the fluorescent markers were present in the posterior intestine.
In the present assays, mosaic zebrafish were generated in which homozygous mlt/mlt cells have replaced the native germline of wild type fish. 100% of the offspring derived from pair wise matings of such modified zebrafish are homozygous for the mlt mutation. Thus, all of the larvae placed in each well of the 96-well plate are mlt mutants, greatly enhancing the efficiency of each assay. […]

[3] = system: wild type zebrafish larvae; assay: Wild type larvae exposed to compound, PED6 imaging of intestine contour; assay type: in vivo, zebrafish (Danio rerio); conditions: 6 dpf wild type larvae, 2 hour exposure to PED6; FIG. 2B
Description: FIGS. 2A-2D photographically show lateral fluorescent images of 6 dpf zebrafish larvae following 2 hour exposure to fluorescent lipid PED6.
For rescue experiments, 1-cell stage embryos derived from pair-wise mating of heterozygous mlt carriers were injected with either the MT-mmpa, morpholino alone or in combination with the β4 integrin morpholino. Subsequently, all embryos were injected with either 0.375 or 0.1875 pg of tissue inhibitor of metalloproteinases 2 (TIMP2 inhibitor) (PF021; Oncogene Research Products, now Calbiochem, San Diego, Calif.) at 48 hpf. Alternatively, 2.5 dpf or 3 dpf larvae were incubated in the TGF-β Type I receptor inhibitor SB 431542, 100 μM in embryo media. Morpholino sequences were as identified in Wallace et al., supra, 2005b for smooth muscle myosin heavy chain, β4 integrin, and MT-mmpa.

Row | SMILES | duration of seizure activity before tonic convulsion [1] | posterior intestinal PED6 fluorescence and intestine contour in mlt larvae ([2]; 6 dpf mlt larvae, 2 hour exposure to PED6, FIG. 2D) | rescue of the mlt mutant phenotype (fluorescent lipid in posterior intestine) ([2]; compound added ~60 hpf, PED6 at 96 hpf, imaged at 120 hpf) | intestinal cysts versus untreated mlt larvae ([2]; mlt larvae scored at 5 dpf, treated at 2.5 dpf or 3 dpf, 100 μM in embryo media) | intestine contour in wild type larvae [3]
1 | C1CCc2nnnn2CC1 [PTZ, pentylenetetrazole] | approximately 20 minutes |  |  |  | 
2 | NC(=O)c1ccc(-c2nc(-c3ccc4c(c3)OCO4)c(-c3ccccn3)[nH]2)cc1 [SB431542] |  | posterior intestinal fluorescence and the contour is normal | rescuing the mutant phenotype | far fewer cysts than untreated mlt larvae | normal intestine contour
